Assay results from patent publication US20250109134A1 (Ascentage Pharma (Suzhou) Co., Ltd., priority 2022, published 2025).

Assay: Polymorph screening (suspension, anti-solvent, gas-liquid diffusion, slow volatilization methods), resulting form by XRPD
Assay type: physicochemical
Details: for XRPD results: methanol solution, no precipitation, open-to-air volatilization
Procedure: The sample was quickly centrifuged (6000 rpm, 5 min) to remove a supernatant. The resulting precipitate was subjected to vacuum drying (40° C., −0.1 MPa) for 20 h, followed by physical characterization.
The resulting precipitate was subjected to vacuum drying at 40° C. for 20 h, followed by physical characterization.
No clear solution was obtained, and the sample was still undissolved after 1 mL of solvent was added. Then, 500 μL of poor solvent (acetone, ACN, MeOH, EtOAc, THE, or […]) was added, and 40 mg of the sample was added to perform an experiment by a suspension method. All suspension samples were stirred at 50° C. for 2 days and quickly centrifuged (6000 rpm, 5 min) to remove a supernatant. The resulting solid was subjected to vacuum drying at 40° C. for 20 h, followed by physical characterization.
The compound of formula I was subjected to polymorph screening with DCM as a good solvent and with MeOH, EtOH, THE, or EA as an anti-solvent, and was dissolved in both DCM and MeOH systems. The suspension sample was stirred for 2 days and quickly centrifuged to remove a supernatant. The resulting precipitate was subjected to vacuum drying at 25° C. for 20 h, followed by physical characterization.
The resulting precipitate was subjected to vacuum drying at room temperature for 20 h, followed by physical characterization.
The resulting precipitate was subjected to vacuum drying for 20 h.
Sonication was performed for 1 min to obtain a clear solution, which was filtered through a 0.22 μm filter membrane and aliquoted into seven 8 mL glass flasks. An anti-solvent was added until precipitation occurred. The sample was stirred at room temperature for 1 day and quickly centrifuged. The resulting solid precipitate was subjected to vacuum drying.
Then, an anti-solvent was added until precipitation occurred, and the mixture was stirred at room temperature overnight and quickly centrifuged (6000 rpm, 6 min) to remove a supernatant. The resulting precipitate was subjected to vacuum drying for 20 h.
Then, the solution was added to a 20 mL glass flask containing 2 mL of an anti-solvent (shown in the following table), and the flask was tightly capped at room temperature and placed in a fume hood for diffusion. When precipitation occurred, the flask was taken out, and the resulting precipitate was subjected to vacuum drying for 20 h.
The flask placed in a fume hood at room temperature for diffusion. When precipitation occurred, the flask was taken out, and the resulting precipitate was subjected to vacuum drying for 20 h.
The mixture was stirred at 50° C. or room temperature for 6 days and quickly centrifuged (6000 rpm, […]) to remove a supernatant. The resulting precipitate was subjected to vacuum drying for 20 h.

[1] = solvent 1,4-Dixoane, suspension, 6 days

Question: For `CC(C)N1Cc2cc(C(F)(F)F)ncc2-c2cnc(NCc3c(F)ccc4c3CCO4)n3cnc(c23)C1=O`, which “Crystalline form results 50° C.” value [1] is on record?
Answer: The value was 1,4-dioxane solvate.

Question: What about the “Crystalline form results Room temperature” value [1] of the same molecule?
Answer: Its value is 1,4-dioxane solvate.

Question: What does the source list for `CC(C)N1Cc2cc(C(F)(F)F)ncc2-c2cnc(NCc3c(F)ccc4c3CCO4)n3cnc(c23)C1=O.Cl`?
Answer: Crystalline form results (solvent 1,4-dioxane, suspension, 40° C., 3 days, from crystalline form A of hydrochloride salt): Crystalline form A of hydrochloride salt; Crystalline form results (solvent 88% acetone, suspension, 40° C., 3 days, from crystalline form A of hydrochloride salt): Crystalline form B; Crystalline form results (solvent ACN, suspension, 40° C., 3 days, from crystalline form A of hydrochloride salt): Crystalline form A of hydrochloride salt; Crystalline form results (solvent Acetone, suspension, 40° C., 3 days, from crystalline form A of hydrochloride salt): Crystalline form A of hydrochloride salt; Crystalline form results (solvent EtOAc, suspension, 40° C., 3 days, from crystalline form A of hydrochloride salt): Crystalline form A of hydrochloride salt; Crystalline form results (solvent EtOH, suspension, 40° C., 3 days, from crystalline form A of hydrochloride salt): Ethanol solvate of hydrochloride salt; Crystalline form results (solvent EtOH—H2O = 3-1, suspension, 40° C., 3 days, from crystalline form A of hydrochloride salt): Crystalline form A; Crystalline form results (solvent H2O, suspension, 40° C., 3 days, from crystalline form A of hydrochloride salt): Crystalline form A of hydrochloride salt; Crystalline form results (solvent IPA, suspension, 40° C., 3 days, from crystalline form A of hydrochloride salt): Isopropanol solvate of hydrochloride salt; Crystalline form results (solvent MeOH, suspension, 40° C., 3 days, from crystalline form A of hydrochloride salt): Partial dissociation into crystalline form A; Crystalline form results (solvent MeOH—H2O = 3-1, suspension, 40° C., 3 days, from crystalline form A of hydrochloride salt): Crystalline form A; Crystalline form results (solvent Toluene, suspension, 40° C., 3 days, from crystalline form A of hydrochloride salt): Crystalline form A of hydrochloride salt; Crystalline form results (solvent n-butanol, suspension, 40° C., 3 days, from crystalline form A of hydrochloride salt): Crystalline form A of hydrochloride salt

Question: Which results are given for `CC(C)N1Cc2cc(C(F)(F)F)ncc2-c2cnc(NCc3c(F)ccc4c3CCO4)n3cnc(c23)C1=O.CS(=O)(=O)O`?
Answer: Crystalline form results (anti-solvent method, good solvent DCM/MeOH = 2-1 (20 mg/mL), anti-solvent Methyl acetate, room temperature overnight): No precipitation; Crystalline form results (anti-solvent method, good solvent DMF (50 mg/mL), anti-solvent Acetonitrile, room temperature overnight): Crystalline form A; Crystalline form results (anti-solvent method, good solvent DMF (50 mg/mL), anti-solvent Dimethyl tetrahydrofuran, room temperature overnight): No precipitation; Crystalline form results (anti-solvent method, good solvent DMF (50 mg/mL), anti-solvent Methyl acetate, room temperature overnight): Dissociation into a free base; Crystalline form results (anti-solvent method, good solvent DMF (50 mg/mL), anti-solvent n-heptane, room temperature overnight): No precipitation; Crystalline form results (anti-solvent method, good solvent MeOH (10 mg/mL), anti-solvent Acetonitrile, room temperature overnight): No precipitation; Crystalline form results (anti-solvent method, good solvent MeOH (10 mg/mL), anti-solvent Dimethyl tetrahydrofuran, room temperature overnight): No precipitation; Crystalline form results (anti-solvent method, good solvent MeOH (10 mg/mL), anti-solvent Methyl acetate, room temperature overnight): No precipitation; Crystalline form results (anti-solvent method, good solvent MeOH (10 mg/mL), anti-solvent n-heptane, room temperature overnight): No precipitation; Crystalline form results (anti-solvent method, good solvent NMP (50 mg/mL), anti-solvent Acetonitrile, room temperature overnight): Presumably an NMP solvate; Crystalline form results (anti-solvent method, good solvent NMP (50 mg/mL), anti-solvent Dimethyl tetrahydrofuran, room temperature overnight): Presumably an NMP solvate; Crystalline form results (anti-solvent method, good solvent NMP (50 mg/mL), anti-solvent Ethyl acetate, room temperature overnight): Dissociation into a free base; Crystalline form results (anti-solvent method, good solvent NMP (50 mg/mL), anti-solvent Methyl acetate, room temperature overnight): Presumably an NMP solvate; Crystalline form results (anti-solvent method, good solvent NMP (50 mg/mL), anti-solvent Tert-butyl methyl ether, room temperature overnight): Presumably an NMP solvate; Crystalline form results (anti-solvent method, good solvent NMP (50 mg/mL), anti-solvent n-heptane, room temperature overnight): Presumably an NMP solvate; Crystalline form results (gas-liquid diffusion method, good solvent DMF (50 mg/mL), anti-solvent 2-MeTHF, room temperature): No precipitation; Crystalline form results (gas-liquid diffusion method, good solvent DMF (50 mg/mL), anti-solvent ACN, room temperature): No precipitation; Crystalline form results (gas-liquid diffusion method, good solvent DMF (50 mg/mL), anti-solvent EtOAc, room temperature): No precipitation; Crystalline form results (gas-liquid diffusion method, good solvent DMF (50 mg/mL), anti-solvent FA, room temperature): No precipitation; Crystalline form results (gas-liquid diffusion method, good solvent DMF (50 mg/mL), anti-solvent Heptane, room temperature): No precipitation; Crystalline form results (gas-liquid diffusion method, good solvent DMF (50 mg/mL), anti-solvent MTBE, room temperature): No precipitation; Crystalline form results (gas-liquid diffusion method, good solvent MeOH (10 mg/mL), anti-solvent 2-MeTHF, room temperature): No precipitation; Crystalline form results (gas-liquid diffusion method, good solvent MeOH (10 mg/mL), anti-solvent ACN, room temperature): No precipitation; Crystalline form results (gas-liquid diffusion method, good solvent MeOH (10 mg/mL), anti-solvent FA, room temperature): No precipitation; Crystalline form results (gas-liquid diffusion method, good solvent MeOH (10 mg/mL), anti-solvent Heptane, room temperature): No precipitation; Crystalline form results (gas-liquid diffusion method, good solvent NMP (50 mg/mL), anti-solvent 2-MeTHF, room temperature): Possibly an NMP solvate; Crystalline form results (gas-liquid diffusion method, good solvent NMP (50 mg/mL), anti-solvent ACN, room temperature): Possibly an NMP solvate; Crystalline form results (gas-liquid diffusion method, good solvent NMP (50 mg/mL), anti-solvent EtOAc, room temperature): Dissociation into a free base; Crystalline form results (gas-liquid diffusion method, good solvent NMP (50 mg/mL), anti-solvent FA, room temperature): Possibly an NMP solvate; Crystalline form results (gas-liquid diffusion method, good solvent NMP (50 mg/mL), anti-solvent Heptane, room temperature): Possibly an NMP solvate; Crystalline form results (gas-liquid diffusion method, good solvent NMP (50 mg/mL), anti-solvent MTBE, room temperature): Possibly an NMP solvate; Crystalline form results (slow volatilization method, solvent DCM/MeOH = 2-1, room temperature): Crystalline form B; Crystalline form results (slow volatilization method, solvent EtOH/EA = 2-1, room temperature): Crystalline form A; Crystalline form results (slow volatilization method, solvent EtOH, room temperature): Crystalline form B; Crystalline form results (slow volatilization method, solvent MeOH/FA = 2-1, room temperature): Crystalline form B; Crystalline form results (slow volatilization method, solvent MeOH, room temperature): Crystalline form A; Crystalline form results (solvent ACN—H2O 1-1, initial crystalline form A of methanesulfonate salt): Crystalline form A; Crystalline form results (solvent H2O, initial crystalline form A of methanesulfonate salt): Crystalline form A; Crystalline form results (solvent MeOH—H2O 1-1, initial crystalline form A of methanesulfonate salt): Crystalline form A

Question: Which XRPD results (anti-solvent method, anti-solvent Acetone) does the source give for `CC(C)N1Cc2cc(C(F)(F)F)ncc2-c2cnc(NCc3c(F)ccc4c3CCO4)n3cnc(c23)C1=O.O=S(=O)(O)O` here?
Answer: Its XRPD results is “Crystalline form B”.

Question: What about the XRPD results (anti-solvent method, anti-solvent Heptane) of the same molecule?
Answer: Its XRPD results is “Crystalline form A”.

Question: And the Crystalline form results (solvent 88% acetone, suspension, 40° C., 3 days, from crystalline form A of sulfate salt)?
Answer: Its Crystalline form results is “Crystalline form B”.

Question: What about the Crystalline form results (solvent ACN, suspension, 40° C., 3 days, from crystalline form A of sulfate salt) of the same molecule?
Answer: The Crystalline form results was “Crystalline form A of sulfate salt”.

Question: What about the Crystalline form results (solvent ACN—H2O = 1:1, suspension, 40° C., 3 days, from crystalline form A of sulfate salt) of the same molecule?
Answer: The Crystalline form results was “Crystalline form A”.

Question: What about the Crystalline form results (solvent Acetone, suspension, 40° C., 3 days, from crystalline form A of sulfate salt) of the same molecule?
Answer: Its Crystalline form results is “Crystalline form A of sulfate salt”.

Question: And the Crystalline form results (solvent DCM/MeOH = 1:1, suspension, 40° C., 3 days, from crystalline form A of sulfate salt)?
Answer: Its Crystalline form results is “Crystalline form A”.

Question: And the Crystalline form results (solvent EtOAc, suspension, 40° C., 3 days, from crystalline form A of sulfate salt)?
Answer: The Crystalline form results was “Sulfate salt forming into sulfate”.

Question: And the Crystalline form results (solvent EtOH, suspension, 40° C., 3 days, from crystalline form A of sulfate salt)?
Answer: The Crystalline form results was “Sulfate salt forming into sulfate”.

Question: What about the Crystalline form results (solvent EtOH—H2O = 3:1, suspension, 40° C., 3 days, from crystalline form A of sulfate salt) of the same molecule?
Answer: Its Crystalline form results is “Crystalline form A”.

Question: And the Crystalline form results (solvent IPA, suspension, 40° C., 3 days, from crystalline form A of sulfate salt)?
Answer: Its Crystalline form results is “Sulfate salt forming into sulfate”.

Question: And the Crystalline form results (solvent MeOH, suspension, 40° C., 3 days, from crystalline form A of sulfate salt)?
Answer: Its Crystalline form results is “Crystalline form A”.

Question: And the Crystalline form results (solvent MeOH—H2O = 3:1, suspension, 40° C., 3 days, from crystalline form A of sulfate salt)?
Answer: Its Crystalline form results is “Crystalline form A”.

Question: And the Crystalline form results (solvent THF, suspension, 40° C., 3 days, from crystalline form A of sulfate salt)?
Answer: Its Crystalline form results is “Crystalline form A of sulfate salt”.

Question: What about the Crystalline form results (solvent Toluene, suspension, 40° C., 3 days, from crystalline form A of sulfate salt) of the same molecule?
Answer: Its Crystalline form results is “Crystalline form A of sulfate salt”.
